The results in this text go back to ChEMBL document CHEMBL1130556, “Synthesis and activity of brefeldin a analogs as inducers of cancer cell differentiation and apoptosis” (Bioorg Med Chem Lett, 1997).

Assay type in all cases: functional, cell-based
Holding throughout (conditions): Homo sapiens

Assay [1] deals with HCT-116. Description: Effect on apoptotic DNA fragmentation to differentitiate HCT 116 cells, at a concentration of 0.85 uM, 0.25 ug/ml was determined; - = Not potent.
In assay [2] the test system is HCT-116. Put plainly: Effect on apoptotic DNA fragmentation to differentitiate HCT 116 cells, at a concentration of 1.6 uM, 0.5 ug/ml was determined; + = Potent.
Assay [3] concerns HCT-116. Description: Effect on apoptotic DNA fragmentation to differentitiate HCT 116 cells, at a concentration of 3.4 uM, 1.0 ug/ml was determined; - = Not potent.
Assay [4] relates to HCT-116. Description: Effect on apoptotic DNA fragmentation to differentitiate HCT 116 cells, at a concentration of 0.11 uM, 0.03 ug/ml was determined; + = Potent.
Assay [5] deals with HCT-116. Description: Effect on apoptotic DNA fragmentation to differentitiate HCT 116 cells, at a concentration of 0.27 uM, 0.1 ug/ml was determined; + = Potent.
Assay [6] has as its system HCT-116. Put plainly: Effect on apoptotic DNA fragmentation to differentitiate HCT 116 cells, at a concentration of 3.6 uM, 1.0 ug/ml was determined; - = Non potent.
The test system of assay [7] is HCT-116. Description: Effect on apoptotic DNA fragmentation to differentitiate HCT 116 cells, at a concentration of 5.2 uM, 2.0 ug/ml was determined; - = Not potent.
Assay [8] has as its system HCT-116. Put plainly: Effect on apoptotic DNA fragmentation to differentitiate HCT 116 cells, at a concentration of 3.5 uM, 1.0 ug/ml was determined; - = Not potent.
Assay [9] has as its system HCT-116. Put plainly: Effect on apoptotic DNA fragmentation to differentitiate HCT 116 cells, at a concentration of 0.16 uM, […] was determined; + = Potent.
Assay [10] concerns HCT-116. Description: Effect on apoptotic DNA fragmentation to differentitiate HCT 116 cells, at a concentration of 4.1 uM, 1.2 ug/ml was determined; + = Potent.
Assay [11] concerns HCT-116. Description: Effect on apoptotic DNA fragmentation to differentitiate HCT 116 cells, at a concentration of 3.2 uM, 1.0 ug/ml was determined; - = Not potent.
Assay [12] has as its system HCT-116. Description: Effect on apoptotic DNA fragmentation to differentitiate HCT 116 cells, at a concentration of 6.4 uM, 2.0 ug/ml was determined; - = Not potent.

Take `CO[C@@H]1/C=C/C(=O)O[C@@H](C)CCC/C=C\[C@@H]2C[C@H](O)C[C@H]21`: the DNA fragmentation entry in the assay with HCT-116 [1] is “Not potent”. Consider `CC(=O)O[C@@H]1/C=C/C(=O)O[C@@H](C)CCC/C=C\[C@@H]2C[C@H](O)C[C@H]21`, for which the DNA fragmentation result in the assay with HCT-116 [2] is “Potent”.

`C[C@@H](O)CCC/C=C\[C@@H]1C[C@H](O)C[C@H]1[C@H](O)/C=C/C(=O)O`: in the assay on HCT-116 [3], the DNA fragmentation entry is “Not potent”.

Regarding `C[C@H]1CCC/C=C\[C@@H]2C[C@H](O)C[C@H]2[C@H](O)/C=C/C(=O)O1`, in the assay on HCT-116 [4], the DNA fragmentation result was “Potent”. On to `CC(=O)O[C@@H]1C[C@@H]2[C@H](/C=C\CCC[C@H](C)OC(=O)/C=C/[C@H]2OC(C)=O)C1`, for which the DNA fragmentation entry in the assay with HCT-116 [5] was “Potent”. Regarding `C[C@H]1CCC/C=C\[C@@H]2CC(=O)C[C@H]2C(=O)CCC(=O)O1`, the DNA fragmentation result with HCT-116 [6] is on record as “Non potent”.

On to `C[C@@H](O)CCC/C=C\[C@@H]1C[C@H](O)C[C@H]1[C@H](O)/C=C/C(=O)OCc1ccccc1`, for which the DNA fragmentation entry in the assay on HCT-116 [7] is “Not potent”.

With `C[C@H]1CCC/C=C\[C@@H]2CC(=O)C[C@H]2[C@H](O)/C=C/C(=O)O1`, the DNA fragmentation result in the assay with HCT-116 [6] was “Non potent”. As to `C[C@H]1CCCCC[C@@H]2C[C@H](O)C[C@H]2[C@H](O)CCC(=O)O1`, the DNA fragmentation entry with HCT-116 [8] was “Not potent”. Regarding `CC(=O)O[C@@H]1C[C@H]2[C@H](O)/C=C/C(=O)O[C@@H](C)CCC/C=C\[C@@H]2C1`, the DNA fragmentation result in the assay on HCT-116 [9] was “Potent”. For the molecule `C[C@H]1CCC[C@@H]2O[C@@H]2[C@@H]2C[C@H](O)C[C@H]2[C@H](O)/C=C/C(=O)O1`, the DNA fragmentation result in the assay with HCT-116 [10] was “Potent”. As to `CO[C@@H]1C[C@@H]2[C@H](/C=C\CCC[C@H](C)OC(=O)/C=C/[C@H]2OC)C1`, in the assay on HCT-116 [11], the DNA fragmentation result is “Not potent”. On to `COC(=O)/C=C/[C@@H](O)[C@@H]1C[C@@H](O)C[C@H]1/C=C\CCC[C@@H](C)O`, for which the DNA fragmentation result in the assay on HCT-116 [12] was “Not potent”.
